# Several values for one entry are separate records, joined by “and”; a condition that tells them apart may be missing. Equal values may be shown once. Read-outs that look alike come from different tables or passages of the source.
# Columns and labels:
# P. aeruginosa PA14 = experiment: Growth of P. aeruginosa PA14 in TMI-supplemented media with fluorofolin; assay type: cell-based, Pseudomonas aeruginosa; details: for OD600 of P. Aeruginosa PA14: Fluorofolin
# E. coli MG1655 = experiment: Growth competition assay, c.f.u. of E. coli MG1655; assay type: cell-based, Escherichia coli; details: for E.coli MG1655 CFU/mL: Panel C
# Procedure: Cultures of each species were grown separately as well as being mixed 1:1. […] The number of colonies on Pseudomonas Selection Agar plates is reported as the c.f.u. ml^−1 of P. aeruginosa. To calculate c.f.u.s ml^−1 of E. coli MG1655, c.f.u.s ml^−1 were determined from LB agar plates and the c.f.u.s ml^−1 of P. aeruginosa were subtracted from these values.
# [1] = system: P. aeruginosa clinical isolates; assay type: cell-based, Pseudomonas aeruginosa
# Procedure: Percent growth was calculated by dividing the OD600 of fluorofolin antibiotic-treated wells by that of vehicle-only wells.
# [2] = system: Pseudomonas aeruginosa ATTC 27853; experiment: MIC against P. aeruginosa ATTC 27853 in LB broth; assay type: cell-based; details: ATTC27853, 16 h
# Procedure: (§1) Overnight cultures were diluted 1:150 in LB broth and added to a 96-well plate. Antibiotics were serially diluted 1:2 and added to columns of the 96-well plate and grown at 37 °C with continuous shaking. Cell growth was measured using optical density at 600 nm (OD600). MIC assays were performed in either BioTek Synergy HT or Tecan InfiniteM200 Pro microplate readers.
# Escherichia coli MG1655 = experiment: MIC against E. coli MG1655 in LB broth; assay type: cell-based; details: 16 h, 37 °C, OD600
# Procedure: as §1
compound,measurement,setting,value
Nc1nc(N)c2c(ccc3c2ccn3Cc2ccnc(F)c2)n1 [fluorofolin],OD600 of P. Aeruginosa PA14,P. aeruginosa PA14; Time 128.123 min,0.0085
same,OD600 of P. Aeruginosa PA14,P. aeruginosa PA14; Time 138.8 min,0.00865
same,OD600 of P. Aeruginosa PA14,P. aeruginosa PA14; Time 149.477 min,0.0096
same,OD600 of P. Aeruginosa PA14,P. aeruginosa PA14; Time 160.153 min,0.01045
same,OD600 of P. Aeruginosa PA14,P. aeruginosa PA14; Time 170.83 min,0.01095
same,OD600 of P. Aeruginosa PA14,P. aeruginosa PA14; Time 181.507 min,0.01175
same,OD600 of P. Aeruginosa PA14,P. aeruginosa PA14; Time 192.183 min,0.0127
same,OD600 of P. Aeruginosa PA14,P. aeruginosa PA14; Time 202.86 min,0.0136
same,OD600 of P. Aeruginosa PA14,P. aeruginosa PA14; Time 213.537 min,0.01395
same,OD600 of P. Aeruginosa PA14,P. aeruginosa PA14; Time 224.213 min,0.01515
same,OD600 of P. Aeruginosa PA14,P. aeruginosa PA14; Time 234.89 min,0.01575
same,OD600 of P. Aeruginosa PA14,P. aeruginosa PA14; Time 245.567 min,0.0166
same,OD600 of P. Aeruginosa PA14,P. aeruginosa PA14; Time 256.243 min,0.0165
same,OD600 of P. Aeruginosa PA14,P. aeruginosa PA14; Time 266.922 min,0.01705
same,OD600 of P. Aeruginosa PA14,P. aeruginosa PA14; Time 277.598 min,0.01815
same,OD600 of P. Aeruginosa PA14,P. aeruginosa PA14; Time 288.275 min,0.01805
same,OD600 of P. Aeruginosa PA14,P. aeruginosa PA14; Time 298.952 min,0.0199
same,OD600 of P. Aeruginosa PA14,P. aeruginosa PA14; Time 309.628 min,0.0191
same,OD600 of P. Aeruginosa PA14,P. aeruginosa PA14; Time 320.305 min,0.0205
same,OD600 of P. Aeruginosa PA14,P. aeruginosa PA14; Time 330.982 min,0.01975
same,OD600 of P. Aeruginosa PA14,P. aeruginosa PA14; Time 341.658 min,0.0208
same,OD600 of P. Aeruginosa PA14,P. aeruginosa PA14; Time 352.335 min,0.0206
same,OD600 of P. Aeruginosa PA14,P. aeruginosa PA14; Time 363.012 min,0.02055
same,OD600 of P. Aeruginosa PA14,P. aeruginosa PA14; Time 373.688 min,0.0208
same,OD600 of P. Aeruginosa PA14,P. aeruginosa PA14; Time 384.365 min,0.02105
same,OD600 of P. Aeruginosa PA14,P. aeruginosa PA14; Time 395.042 min,0.02085
same,OD600 of P. Aeruginosa PA14,P. aeruginosa PA14; Time 405.718 min,0.02185
same,OD600 of P. Aeruginosa PA14,P. aeruginosa PA14; Time 416.395 min,0.02155
same,OD600 of P. Aeruginosa PA14,P. aeruginosa PA14; Time 427.072 min,0.02275
same,OD600 of P. Aeruginosa PA14,P. aeruginosa PA14; Time 437.748 min,0.02165
same,OD600 of P. Aeruginosa PA14,P. aeruginosa PA14; Time 448.425 min,0.0225
same,OD600 of P. Aeruginosa PA14,P. aeruginosa PA14; Time 459.102 min,0.0221
same,OD600 of P. Aeruginosa PA14,P. aeruginosa PA14; Time 469.78 min,0.0226
same,OD600 of P. Aeruginosa PA14,P. aeruginosa PA14; Time 480.457 min,0.02355
same,OD600 of P. Aeruginosa PA14,P. aeruginosa PA14; Time 491.133 min,0.02265
same,OD600 of P. Aeruginosa PA14,P. aeruginosa PA14; Time 501.81 min,0.02275
same,OD600 of P. Aeruginosa PA14,P. aeruginosa PA14; Time 512.487 min,0.023
same,OD600 of P. Aeruginosa PA14,P. aeruginosa PA14; Time 523.163 min,0.02375
same,OD600 of P. Aeruginosa PA14,P. aeruginosa PA14; Time 533.84 min,0.02255
same,OD600 of P. Aeruginosa PA14,P. aeruginosa PA14; Time 544.517 min,0.02295
same,OD600 of P. Aeruginosa PA14,P. aeruginosa PA14; Time 555.193 min,0.0233
same,OD600 of P. Aeruginosa PA14,P. aeruginosa PA14; Time 565.87 min,0.02345
same,OD600 of P. Aeruginosa PA14,P. aeruginosa PA14; Time 576.547 min,0.0235
same,rescue of growth inhibition by TMI supplementation,"P. aeruginosa PA14; P. aeruginosa PA14, 0.3 mM TMI, fluorofolin 2× MIC",unable to rescue
same,growth in co-culture with TMI supplementation,"E. coli MG1655; PA14 : E. coli MG1655 1:1, 50 μg ml^−1 fluorofolin, selective plating",but not E. coli
same,E.coli MG1655 CFU/mL,E. coli MG1655; Fluorofolin,10 CFU/mL
same,E.coli MG1655 CFU/mL,E. coli MG1655; Fluorofolin + TMI,1050000 CFU/mL and 1500000 CFU/mL and 1350000 CFU/mL
same,isolates inhibited,[1],90%
same,number of isolates inhibited,[1],69
same,sensitivity of isolates with dfrB2,[1],fluorofolin-sensitive
same,number of resistant isolates,"[1]; 22 blood isolates, 50 μg ml^−1",None
same,number of resistant isolates,"[1]; 55 CDC isolates, 50 μg ml^−1",8
same,clinical isolates resistant,"[1]; 77 P. aeruginosa clinical isolates (55 CDC/FDA, 22 blood), 50 μg ml^−1, growth inhibition >80% = sensitive",10.4%
same,sensitivity of carbapenemase isolates,[1]; clinical isolates expressing KPC-5 and NDM-1,remained sensitive
same,clinical isolates resistant,"[1]; earlier manuscript version quoted by reviewers, antibiotic resistance isolate bank only",14.5%
same,MIC,[2],25 µg/mL
same,MIC,Escherichia coli MG1655,0.625 µg/mL

# From paper PMC11087268, “A folate inhibitor exploits metabolic differences in Pseudomonas aeruginosa for narrow-spectrum targeting” (Nature Microbiology, 2024)
